Test results from PubChem BioAssay (NCI).
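Each compound was tested at five concentrations against cells in 96-well plates for 48 hours. Definition used: TGI = concentration required for complete inhibition of growth.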

Columns and labels:
Test in all cases: NCI tumour cell line growth inhibition, 48 h
786-0 renal = system: 786-0 renal
A549 NSCLC = system: A549 NSCLC
ACHN renal = system: ACHN renal
BT-549 breast = system: BT-549 breast
CAKI-1 renal = system: CAKI-1 renal
CCRF-CEM leukemia = system: CCRF-CEM leukemia
COLO 205 colon = system: COLO 205 colon
DU-145 prostate = system: DU-145 prostate
EKVX NSCLC = system: EKVX NSCLC
HCC-2998 colon = system: HCC-2998 colon
HCT-116 colon = system: HCT-116 colon
HCT-15 colon = system: HCT-15 colon
HL-60(TB) leukemia = system: HL-60(TB) leukemia
HOP-62 NSCLC = system: HOP-62 NSCLC
HOP-92 NSCLC = system: HOP-92 NSCLC
HS 578T breast = system: HS 578T breast
HT29 colon = system: HT29 colon
IGROV1 ovarian = system: IGROV1 ovarian
K-562 leukemia = system: K-562 leukemia
KM12 colon = system: KM12 colon
LOX IMVI melanoma = system: LOX IMVI melanoma
M14 melanoma = system: M14 melanoma
MCF7 breast = system: MCF7 breast
MDA-MB-231 breast = system: MDA-MB-231 breast
MDA-MB-435 = system: MDA-MB-435
MDA-N = system: MDA-N
MOLT-4 leukemia = system: MOLT-4 leukemia
NCI-H226 lung = system: NCI-H226 lung
NCI-H23 lung = system: NCI-H23 lung
NCI-H460 lung = system: NCI-H460 lung
NCI-H522 lung = system: NCI-H522 lung
NCI/ADR-RES ovarian = system: NCI/ADR-RES ovarian
OVCAR-3 ovarian = system: OVCAR-3 ovarian
OVCAR-4 ovarian = system: OVCAR-4 ovarian
OVCAR-5 ovarian = system: OVCAR-5 ovarian
OVCAR-8 ovarian = system: OVCAR-8 ovarian
PC-3 prostate = system: PC-3 prostate
RXF 393 renal = system: RXF 393 renal
SF-268 CNS = system: SF-268 CNS
SF-295 CNS = system: SF-295 CNS
SF-539 CNS = system: SF-539 CNS
SK-MEL-28 melanoma = system: SK-MEL-28 melanoma
SK-MEL-5 melanoma = system: SK-MEL-5 melanoma
SK-OV-3 ovarian = system: SK-OV-3 ovarian
SN12C renal = system: SN12C renal
SNB-19 CNS = system: SNB-19 CNS
SNB-75 CNS = system: SNB-75 CNS
SR leukemia = system: SR leukemia
SW-620 colon = system: SW-620 colon
T-47D breast = system: T-47D breast
TK-10 renal = system: TK-10 renal
U251 CNS = system: U251 CNS
UACC-257 melanoma = system: UACC-257 melanoma
UACC-62 melanoma = system: UACC-62 melanoma
UO-31 renal = system: UO-31 renal
A498 renal = system: A498 renal
MALME-3M melanoma = system: MALME-3M melanoma
RPMI-8226 leukemia = system: RPMI-8226 leukemia
SK-MEL-2 melanoma = system: SK-MEL-2 melanoma

Work on CC1=CC(C/C(C)=C/COc2ccc3ccc(=O)oc3c2)OC1=O (stereo unspecified) yielded a TGI (786-0 renal) greater than 100 µM, a TGI (A549 NSCLC) greater than 100 µM and a TGI (ACHN renal) greater than 100 µM. For the same compound, the TGI (BT-549 breast) was greater than 100 µM, the TGI (CAKI-1 renal) was greater than 100 µM and the TGI (CCRF-CEM leukemia) was greater than 100 µM. The TGI (COLO 205 colon) was greater than 100 µM, the TGI (DU-145 prostate) was greater than 100 µM and the TGI (EKVX NSCLC) was greater than 100 µM. It also gave a TGI (HCC-2998 colon) greater than 100 µM, a TGI (HCT-116 colon) greater than 100 µM and a TGI (HCT-15 colon) greater than 100 µM. It also gave a TGI (HL-60(TB) leukemia) greater than 100 µM, a TGI (HOP-62 NSCLC) greater than 100 µM and a TGI (HOP-92 NSCLC) greater than 100 µM. For the same compound, the TGI (HS 578T breast) was greater than 100 µM, the TGI (HT29 colon) was greater than 100 µM and the TGI (IGROV1 ovarian) was greater than 100 µM. The TGI (K-562 leukemia) was greater than 100 µM, the TGI (KM12 colon) was greater than 100 µM and the TGI (LOX IMVI melanoma) was greater than 100 µM. The TGI (M14 melanoma) was greater than 100 µM, the TGI (MCF7 breast) was greater than 100 µM and the TGI (MDA-MB-231 breast) was greater than 100 µM. The TGI (MDA-MB-435) was greater than 100 µM, the TGI (MDA-N) was greater than 100 µM and the TGI (MOLT-4 leukemia) was greater than 100 µM. The TGI (NCI-H226 lung) was greater than 100 µM, the TGI (NCI-H23 lung) was greater than 100 µM and the TGI (NCI-H460 lung) was greater than 100 µM. It also gave a TGI (NCI-H522 lung) greater than 100 µM, a TGI (NCI/ADR-RES ovarian) greater than 100 µM and a TGI (OVCAR-3 ovarian) greater than 100 µM. The TGI (OVCAR-4 ovarian) was greater than 100 µM, the TGI (OVCAR-5 ovarian) was greater than 100 µM and the TGI (OVCAR-8 ovarian) was greater than 100 µM. It also gave a TGI (PC-3 prostate) greater than 100 µM, a TGI (RXF 393 renal) greater than 100 µM and a TGI (SF-268 CNS) greater than 100 µM. The TGI (SF-295 CNS) was greater than 100 µM, the TGI (SF-539 CNS) was greater than 100 µM and the TGI (SK-MEL-28 melanoma) was greater than 100 µM. For the same compound, the TGI (SK-MEL-5 melanoma) was greater than 100 µM, the TGI (SK-OV-3 ovarian) was greater than 100 µM and the TGI (SN12C renal) was greater than 100 µM. The TGI (SNB-19 CNS) was greater than 100 µM, the TGI (SNB-75 CNS) was greater than 100 µM and the TGI (SR leukemia) was greater than 100 µM. It also gave a TGI (SW-620 colon) greater than 100 µM, a TGI (T-47D breast) greater than 100 µM and a TGI (TK-10 renal) greater than 100 µM. It also gave a TGI (U251 CNS) greater than 100 µM, a TGI (UACC-257 melanoma) greater than 100 µM and a TGI (UACC-62 melanoma) greater than 100 µM. It also gave a TGI (UO-31 renal) greater than 100 µM.
With CCC/C(Cl)=N\OC(=O)Nc1ccc(OC(F)(F)F)cc1 the TGI (786-0 renal) was 26.1 µM, the TGI (A498 renal) was 54.8 µM and the TGI (A549 NSCLC) was 42.3 µM. The TGI (ACHN renal) was 4.41 µM, the TGI (BT-549 breast) was 56.6 µM and the TGI (CAKI-1 renal) was 3.05 µM. It also gave a TGI (CCRF-CEM leukemia) greater than 26.7 µM, a TGI (COLO 205 colon) of 3.54 µM and a TGI (DU-145 prostate) of 33.4 µM. For the same compound, the TGI (EKVX NSCLC) was 40.1 µM, the TGI (HCC-2998 colon) was 38.6 µM and the TGI (HCT-116 colon) was greater than 51.6 µM. The TGI (HL-60(TB) leukemia) was greater than 20.6 µM, the TGI (HOP-62 NSCLC) was 35.5 µM and the TGI (HOP-92 NSCLC) was 4.48 µM. The TGI (HS 578T breast) was greater than 70.7 µM, the TGI (HT29 colon) was 42.4 µM and the TGI (IGROV1 ovarian) was 22 µM. The TGI (K-562 leukemia) was greater than 20.1 µM, the TGI (KM12 colon) was 30.8 µM and the TGI (LOX IMVI melanoma) was 8.78 µM. The TGI (M14 melanoma) was 18.5 µM, the TGI (MALME-3M melanoma) was 4.22 µM and the TGI (MCF7 breast) was 40.3 µM. It also gave a TGI (MDA-MB-231 breast) of 25.8 µM, a TGI (MDA-MB-435) of 49.9 µM and a TGI (MDA-N) of 28.2 µM. The TGI (MOLT-4 leukemia) was 4.59 µM, the TGI (NCI-H226 lung) was 34.5 µM and the TGI (NCI-H23 lung) was 53.8 µM. It also gave a TGI (NCI-H460 lung) of 40.1 µM, a TGI (NCI-H522 lung) of 2.39 µM and a TGI (NCI/ADR-RES ovarian) greater than 25.3 µM. For the same compound, the TGI (OVCAR-3 ovarian) was 25.2 µM, the TGI (OVCAR-4 ovarian) was 39.8 µM and the TGI (OVCAR-5 ovarian) was 35.9 µM. It also gave a TGI (OVCAR-8 ovarian) of 36.3 µM, a TGI (PC-3 prostate) of 32.8 µM and a TGI (RPMI-8226 leukemia) of 4.43 µM. For the same compound, the TGI (RXF 393 renal) was 31.2 µM, the TGI (SF-268 CNS) was greater than 84.7 µM and the TGI (SF-295 CNS) was 31.7 µM. The TGI (SF-539 CNS) was 33.3 µM, the TGI (SK-MEL-2 melanoma) was 32.9 µM and the TGI (SK-MEL-28 melanoma) was 41.9 µM. It also gave a TGI (SK-MEL-5 melanoma) of 21.7 µM, a TGI (SK-OV-3 ovarian) of 34.2 µM and a TGI (SN12C renal) of 21.1 µM. The TGI (SNB-19 CNS) was greater than 58.7 µM, the TGI (SNB-75 CNS) was 35.8 µM and the TGI (T-47D breast) was 7.65 µM. For the same compound, the TGI (TK-10 renal) was 12.4 µM, the TGI (U251 CNS) was greater than 58.1 µM and the TGI (UACC-257 melanoma) was 39.8 µM. It also gave a TGI (UACC-62 melanoma) of 48.7 µM and a TGI (UO-31 renal) of 23.3 µM.
